Patent publication US9408386B2, “Use of succinate dehydrogenase inhibitors (SDHIs) for controlling wood diseases in grape” (BAYER CROPSCIENCE AG, priority 2012, dated 2016)

Tests used:
Assay type in all cases: cell-based
[1] = system: Phaeoacremonium aleophilum; experiment: In vitro mycelium growth test on malt agar medium; details: 50 ppm in malt agar, 22° C., colony diameter, Abbott formula
Method: (§1) This test is carried out on representative fungi found in grape plants showing “Esca” Symptoms
(§2) Formulated products are diluted in sterilized dematerialized water at the desired concentration and added to malt agar medium. Fluopyram and penflufen were used as a […] formulation formulation containing 100 g/l active ingredient (SC 100), Bixafen as a emulsifiable concentrate formulation containing 200 g/l active ingredient (EC 200), and tebuconazole as a oil in water emulsion formulation containing 250 g/l active ingredient (EW 250). The medium containing the product to be tested is poured in 90 mm diameter Petri dishes. Each dish is then inoculated using a 5 mm diameter mycelium plug taken, using a cork borer, from the active growing edge of a colony.
(§3) Inoculated Petri dishes are then incubated at 22° C. with a photoperiod of 12 h. The incubation period corresponds to the time required for the fungus to invade the entire surface of the growth medium. At that time, mycelium growth is evaluated by calculating the mean of two perpendicular measure of the colony diameter. A percentage of efficacy is then calculated (Abbott formula).
(§4) The concentration of 50 ppm corresponds approximately to about 50 g/ha when an application amount of 1000 l water per hectare is used.

Botryosphaeria obtusa = experiment: In vitro mycelium growth test on malt agar medium; details: 50 ppm in malt agar, 22° C., colony diameter, Abbott formula
Method: as §1, §2, §3, §4

[2] = system: Phaemoniella chlamydospora; experiment: In vitro mycelium growth test on malt agar medium
Method: as §1, §2, §3, §4

Eutypa lata = experiment: In vitro mycelium growth test on malt agar medium; details: 50 ppm in malt agar, 22° C., colony diameter, Abbott formula
Method: as §1, §2, §3, §4

Botryosphaeria dothidea = experiment: In vitro mycelium growth test on malt agar medium; details: 50 ppm in malt agar, 22° C., colony diameter, Abbott formula
Method: as §1, §2, §3, §4

Formitiporia mediteranea = experiment: In vitro mycelium growth test on malt agar medium
Method: as §1, §2, §3, §4

[3] = system: several fungi belonging to the community usually found in plants showing Esca symptoms; experiment: In vitro mycelium growth test, summary over the Esca fungi community; details: at 50 ppm
Method: as §1, §2, §3, §4

[4] = Phaemoniella chlamydospora, 50 ppm in malt agar, 22° C., colony diameter, Abbott formula
[5] = Formitiporia mediteranea, 50 ppm in malt agar, 22° C., colony diameter, Abbott formula

SMILES	In Vitro Efficacy Mycellium** [1] [%]	In Vitro Efficacy Mycellium** (Botryosphaeria obtusa) [%]	In Vitro Efficacy Mycellium** [2, 4] [%]	In Vitro Efficacy Mycellium** (Eutypa lata) [%]	In Vitro Efficacy Mycellium** (Botryosphaeria dothidea) [%]	In Vitro Efficacy Mycellium** (Formitiporia mediteranea; [5]) [%]	reduction of several fungi of the Esca community [3]	In Vitro Efficacy Mycellium** ([2]; 50 ppm) [%]	In Vitro Efficacy Mycellium** (Formitiporia mediteranea; 50 ppm) [%]
Cn1cc(C(=O)Nc2ccc(F)cc2-c2ccc(Cl)c(Cl)c2)c(C(F)F)n1 [Bixafen, bixafen]	69	85	100	100	86	100	significant reduction		
O=C(NCCc1ncc(C(F)(F)F)cc1Cl)c1ccccc1C(F)(F)F [Fluopyram, N-[2-[3-chloro-5-(trifluoromethyl)-2-pyridinyl]ethyl]-2-(trifluoromethyl)benzamide]	35	65		61	55		significant reduction	59	10
Cc1nn(C)c(F)c1C(=O)Nc1ccccc1C(C)CC(C)C (stereo not drawn) [Penflufen, penflufen]	62	65	75	83	64	100	significant reduction		
CC(C)(C)C(O)(CCc1ccc(Cl)cc1)Cn1cncn1 (stereo not drawn) [Tebuconazole, tebuconazole]	100	100		100	100			100	100
